Values quoted from earlier work as cited in patent US20100130528A1, “ADAMANTANE MODULATORS OF NMDA RECEPTOR AND/OR 5HT3 RECEPTOR” (AUSPEX PHARMACEUTICALS, INC., priority 2008, published 2010).

Key:
[1] = in man
[2] = test system: cytochrome P450
[3] = in vivo

circulating memantine-related material present as the parent compound [1]: about 80%
Structure (SMILES): CC12CC3CC(C)(C1)CC(N)(C3)C2 [memantine, 1-amino-3,5-dimethyl-adamantane]
cytochrome P450 catalysed metabolism [2]: No cytochrome P450 catalysed metabolism has been detected | adverse effects [3]: fatigue, pain, hypertension, dizziness, headache, constipation, vomiting, confusion, somnolence, hallucination, cough, and dyspnea
